Measurements published in patent US10993983B2, “Cyclic peptide epitopes and small-molecule mimics for inducing autophagy” (TRUSTEES OF TUFTS COLLEGE, priority 2016, dated 2021).
*1 amine or outer side, *2 acyl side, *3 side chain or, on linkers, in order; H or OH if unused. Where a SMILES comes first, the peptide text is derived from it. Bridges are numbered along the chain shown (N, C = ends). Where no end group is shown, it is not given here. [ ]: non-standard residue; d: D form. The star is where a group is joined. NH(CH2CH2O)2(CH2)6Cl = ClCCCCCCOCCOCCN*; oXylylene = c1ccc(C[*:2])c(C[*:1])c1; Suc = O=C(CCC(=O)[*:2])[*:1]; Carboxymethyl = O=C(O)C*; Pent4ynoyl = C#CCCC(=O)*

What was measured:
HeLa cells = assay: Autophagy induction judged by p62 and LC3 immunoblots together; assay type: cell-based; conditions: HeLa cells; for concentration at which autophagy induction (p62 degradation and LC3 lipidation) was observed: immunoblot, 3 hour treatment
Summary of the method: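 HeLa cells exposed to peptide (acetyl N-cap, C-terminal amide) for 3 h in acidified OPTI-MEM, then lysed and immunoblotted for p62 and LC3. Activity is the lowest concentration giving both p62 degradation and LC3-I to LC3-II conversion, scored semi-quantitatively.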

HeLa-htt103Q cells [1] = assay: Htt aggregate assay; assay type: cell-based
Protocol: Along with proteasomal degradation, autophagy is the major pathway by which aggregated proteins are removed from the cytoplasm.
HeLa-htt103Q cells were cultured as described previously.^60 For the Htt103Q aggregate assay, cells were fixed with 2% PFA in PBS and CFP-positive aggregates […] were counted via fluorescence microscopy by an observer blinded to experimental condition.

GFP-LC3 transgenic mice [2] = assay: GFP-LC3 puncta in muscle tissue of GFP-LC3 transgenic mice; assay type: in vivo; conditions: for autophagy induction in vivo (GFP-LC3 puncta in muscle), result in words: i.p. injection, muscle tissue after 6 hours, Tat-11mer 15 mg/kg, D-(Tat-11mer) 15 mg/kg, DD5-o 15, 30 mg/kg
Protocol: To show whether Tat-11mer and DD5-o have similar in vivo activity, we tested their ability to induce autophagy in GFP-LC3 transgenic mice^59 as described.^10 Peptides were delivered via intraperitoneal injection, and after 6 hours, muscle tissue was collected. GFP-LC3 puncta were imaged in thin sections and counted by an observer blinded to experimental condition (FIG. 10, a,b).
(§1) HeLa/GFP-LC3 cells generated as previously shown,^10 treated with peptides for 3 hour as described above. […] After 6 h, mice were sacrificed and fixed by perfusion with 4% PFA in PBS. Tissues were fixed in 4% PFA overnight, 15% sucrose for 4 hours, and 30% sucrose overnight before frozen sections were prepared and used for fluorescence microscopy analysis as described.^16 GFP-LC3 puncta were quantified per 2500 μm^2 of tissue. Animal experiments were approved by the UTSW Institutional Animal Care Use Committee and performed in accordance with institutional guidelines.

HeLa/GFP-LC3 cells = assay: GFP-LC3 puncta assay with and without bafilomycin A1; assay type: cell-based
Protocol: as §1

[3] = system: HaLo-GFP-Mito+mCherry-DHFR HeLa cells; assay: Chloroalkane Penetration Assay (CAPA); assay type: in vitro ADME; conditions: flow cytometry
Text: FIGS. 19A-19C. Chloroalkane Penetration Assay quantitates relative cytosolic access of exogenously added DD5-o. 19A. Schematic showing the experimental procedure of CAPA, which uses a HaloEnzyme-GFP-expressing HeLa cell line. […] For CAPA, cells are pre-treated with vehicle or peptide, washed, and chased with HTag-TAMRA. Cells treated with cell-penetrant molecules have had their Haloenzyme blocked, thus preventing the HTag-TAMRA from covalently labeling the cells. 19B. Representative images of cells after CAPA, showing Haloenzyme-GFP fluorescence, Halotag-TAMRA fluorescence and the overlay of the two. […] 19C. […]
The Chloroalkane Penetration Assay is described in detail in U.S. Provisional Application No. 62/424,955, filed Nov. […] Following this incubation period, the amount of unreacted Haloenzyme was measured by chasing with a Haloligand-bearing dye (here, Htag-TAMRA). The relative amount of red cellular fluorescence after this chase was then quantified by flow cytometry. […] We evaluated CAPA with HTag-cTMP, a small molecule previously used as a tool for cytosolic protein localization.^71 As quantitated by flow cytometry, we observed inhibition of the HTag-TAMRA signal when cells were pre-incubated with HTag-cTMP, and this inhibition was dose-dependent with respect to amount of the HTag-cTMP used in the pre-incubation step. […]

[4] = background; cited from earlier work
HeLa-htt103Q cells [5] = conditions: 20 μM; previously shown; cited from earlier work
GFP-LC3 transgenic mice [6] = conditions: background; 20 mg/kg; cited from earlier work

## C#CCCC(=O)N[C@H](C(=O)N[C@@H]1CSCc2ccccc2CSC[C@H](C(=O)N[C@@H](Cc2ccccc2)C(=O)N[C@@H](Cc2cnc[nH]2)C(=O)N[C@H](C(=O)N[C@@H](Cc2c[nH]c3ccccc23)C(=O)N[C@@H](Cc2cnc[nH]2)C(N)=O)[C@@H](C)CC)NC(=O)[C@H](C)NC(=O)[C@H](CC(N)=O)NC1=O)C(C)C [DD5-o, (pa)-VcNAcFHIWH] (Pent4ynoyl-V[dC]NA[dC]FHIWH-NH2; linker 2-5 via oXylylene)
HeLa cells
  concentration at which autophagy induction (p62 degradation and LC3 lipidation) was observed: 20 µM
HeLa cells; p62 and LC3 immunoblots
  autophagy induction, result in words: nearly equal potency
HeLa-htt103Q cells [1]; 20 μM
  percentage of cells with small htt103Q aggregates and number of small aggregates per cell: significant decrease
GFP-LC3 transgenic mice [2]
  autophagy induction in vivo (GFP-LC3 puncta in muscle), result in words: induced autophagy at 15 and 30 mg/kg in a dose-dependent manner
HeLa/GFP-LC3 cells; 3 hours in serum-free media
  concentration at which autophagy was induced (GFP-LC3 puncta): 10 µM

## CC[C@H](C)[C@H](NC(=O)[C@H](Cc1c[nH]cn1)NC(=O)[C@H](Cc1ccccc1)NC(=O)[C@@H](CSCC(=O)O)NC(=O)[C@H](C)NC(=O)[C@H](CC(N)=O)NC(=O)[C@@H](CSCC(=O)O)NC(=O)[C@@H](NC(=O)CCC(=O)NCCOCCOCCCCCCCl)C(C)C)C(=O)N[C@@H](Cc1c[nH]c2ccccc12)C(=O)N[C@@H](Cc1c[nH]cn1)C(N)=O [HTag-DD5-neg, (HTag)-VcNAcFHIWH] ({NH(CH2CH2O)2(CH2)6Cl-Suc}-V[dC](Carboxymethyl)NA[dC](Carboxymethyl)FHIWH-NH2)
[3]
  inhibition of HTag-TAMRA fluorescence (cytosolic access), result in words: little inhibition of HTag-TAMRA fluorescence

## CC[C@H](C)[C@H](NC(=O)[C@H](Cc1c[nH]cn1)NC(=O)[C@H](Cc1ccccc1)NC(=O)[C@H]1CSCc2ccccc2CSC[C@@H](NC(=O)[C@@H](NC(=O)CCC(=O)NCCOCCOCCCCCCCl)C(C)C)C(=O)N[C@@H](CC(N)=O)C(=O)N[C@@H](C)C(=O)N1)C(=O)N[C@@H](Cc1c[nH]c2ccccc12)C(=O)N[C@@H](Cc1c[nH]cn1)C(N)=O [HTag-DD5-o, (HTag)-VcNAcFHIWH] ({NH(CH2CH2O)2(CH2)6Cl-Suc}-V[dC]NA[dC]FHIWH-NH2; linker 2-5 via oXylylene)
[3]
  inhibition of HTag-TAMRA fluorescence (cytosolic access), result in words: dose-dependent suppression of the HTag-TAMRA signal

## (pa)-VcNAcFHIWH (Pent4ynoyl-V[dC]NA[dC]FHIWH; linker 2-5 via ortho‑xylene (inferred); not fully specified (C-terminus); printed as (pa)-VcNAcFHIWH) [LL5-o, ortho-xylene linker; stereoisomer with two L-cysteines, negative control]
HeLa-htt103Q cells [1]; equimolar concentrations
  clearance of htt103Q aggregates by control peptides: no significant clearance of aggregates
GFP-LC3 transgenic mice [2]
  autophagy induction in vivo (GFP-LC3 puncta in muscle), result in words: no effect

## Tat-11mer: eleven residues derived from Beclin 1, with a Gly-Gly linker and Tat sequence of the N-terminus (SEQ ID NO: 63) (Ac-YGRKKRRQRRRGGVWNATFHIWHD-NH2)
HeLa cells
  concentration at which autophagy induction (p62 degradation and LC3 lipidation) was observed: 5 µM
HeLa-htt103Q cells [1]; 10 μM
  percentage of cells with small htt103Q aggregates and number of small aggregates per cell: significant decrease
GFP-LC3 transgenic mice [2]; equimolar doses
  in vivo potency relative to full-length Tat-Beclin 1: 2- to 4 fold
GFP-LC3 transgenic mice [2]
  autophagy induction in vivo (GFP-LC3 puncta in muscle), result in words: largest increase in autophagosome formation
HeLa/GFP-LC3 cells; activity at 10 μM similar to DD5-o at 40 μM
  fold more potent activation of autophagy (GFP-LC3 puncta): roughly 4 fold

## YGRKKRRQRRRGGTNVFNATFEIWHDGEFGT [Tat-Beclin 1]
[4]
  concentration at which autophagic flux is significantly increased in cell culture: 10 µM
HeLa cells
  concentration at which autophagy induction (p62 degradation and LC3 lipidation) was observed: 10 µM
HeLa-htt103Q cells [1]; 12.5 μM
  activity in htt103Q aggregate assay: no activity
HeLa-htt103Q cells [5]
  number of small and large htt103Q aggregates: decrease the number of small, but not large, htt103Q aggregates
GFP-LC3 transgenic mice [6]
  autophagy induction in mice, result in words: induces autophagy when administered to mice at 20 mg/kg
